Test results reported in ChEMBL document CHEMBL1153512, “Anti-HBV and cytotoxic activities of pyranocoumarin derivatives” (Bioorg Med Chem, 2009).
Converted amounts (≈) assume the structure as drawn.

Test system: A549
Assay: Cytotoxicity against human A549 cells after 3 days by sulforhodamine B assay
Type: functional, cell-based
Details: A549, 72 h; call rule not given here

| Compound | EC50 |
| --- | --- |
| CCC(C)(C)c1cc2c(O)c3c(c(C(C)(C)CC)c2oc1=O)OC(C)(C)CC3 | 12.2 µg/mL (≈ 31.6 µM) |
| C=CC(C)(C)c1c2c(c(O)c3ccc(=O)oc13)C=CC(C)(C)O2 [NORDENTATIN] | 8.7 µg/mL (≈ 27.9 µM) |
| CCC(C)(C)c1c2c(c(O)c3ccc(=O)oc13)CCC(C)(C)O2 | 8.84 µg/mL (≈ 27.9 µM) |
| C=CC(C)(C)c1cc2c(O)c3c(c(C(C)(C)C=C)c2oc1=O)OC(C)(C)C=C3 [CLAUSARIN] | 2.98 µg/mL (≈ 7.83 µM) |
| CC1(C)CC(=O)c2c(c(C(C)(C)C3CO3)c3oc(=O)ccc3c2O)O1 (stereo not given) | > 20 µg/mL |
| C=CC(C)(C)c1cc2c(OC)c3c(c(C(C)(C)C=C)c2oc1=O)OC(C)(C)C1OC31 (stereo not given) | 11.8 µg/mL (≈ 28.7 µM) |
| CCC(C)(C)c1c2c(c(OC)c3ccc(=O)oc13)C(=O)CC(C)(C)O2 | > 20 µg/mL |
| C=CC(C)(C)c1c2c(c(OC)c3ccc(=O)oc13)C=CC(C)(C)O2 [DENTATIN] | > 20 µg/mL |
| CCC(C)(C)c1c2c(c(OC)c3ccc(=O)oc13)CCC(C)(C)O2 | > 20 µg/mL |
| CCC(C)(C)c1c2c(c(O)c3ccc(=O)oc13)C(=O)CC(C)(C)O2 | 19.7 µg/mL (≈ 59.7 µM) |

Test system: KB
Assay: Cytotoxicity against human KB cells after 3 days by sulforhodamine B assay
Type: functional, cell-based
Details: 72 h

| Compound | EC50 |
| --- | --- |
| CCC(C)(C)c1cc2c(O)c3c(c(C(C)(C)CC)c2oc1=O)OC(C)(C)CC3 | 8.21 µg/mL (≈ 21.2 µM) |
| C=CC(C)(C)c1c2c(c(O)c3ccc(=O)oc13)C=CC(C)(C)O2 [NORDENTATIN] | 9.63 µg/mL (≈ 30.8 µM) |
| CCC(C)(C)c1c2c(c(O)c3ccc(=O)oc13)CCC(C)(C)O2 | 9.25 µg/mL (≈ 29.2 µM) |
| C=CC(C)(C)c1cc2c(O)c3c(c(C(C)(C)C=C)c2oc1=O)OC(C)(C)C=C3 [CLAUSARIN] | 1.61 µg/mL (≈ 4.23 µM) |
| CC1(C)CC(=O)c2c(c(C(C)(C)C3CO3)c3oc(=O)ccc3c2O)O1 (stereo not given) | > 20 µg/mL |
| C=CC(C)(C)c1cc2c(OC)c3c(c(C(C)(C)C=C)c2oc1=O)OC(C)(C)C1OC31 (stereo not given) | 6.5 µg/mL (≈ 15.8 µM) |
| CCC(C)(C)c1c2c(c(OC)c3ccc(=O)oc13)C(=O)CC(C)(C)O2 | > 20 µg/mL |
| C=CC(C)(C)c1c2c(c(OC)c3ccc(=O)oc13)C=CC(C)(C)O2 [DENTATIN] | 13.3 µg/mL (≈ 40.6 µM) |
| CCC(C)(C)c1c2c(c(OC)c3ccc(=O)oc13)CCC(C)(C)O2 | 11.5 µg/mL (≈ 34.9 µM) |
| CCC(C)(C)c1c2c(c(O)c3ccc(=O)oc13)C(=O)CC(C)(C)O2 | 19.5 µg/mL (≈ 59 µM) |

Test system: Hepatitis B virus
Assay: Antiviral activity against Hepatitis B virus infected in human […] cells assessed as suppression of viral surface antigen production upto 15 uM after 48 hrs by enzyme immunoassay
Type: functional, organism-based
Details: not given

| EC50 | Compound |
| --- | --- |
| Not Active | CCC(C)(C)c1cc2c(O)c3c(c(C(C)(C)CC)c2oc1=O)OC(C)(C)CC3 |
| Not Active | CC1(C)CC(=O)c2c(c(C(C)(C)C3CO3)c3oc(=O)ccc3c2O)O1 (stereo not given) |
| Not Active | COc1c2c(cc3oc(=O)ccc13)OC(C)(C)C=C2 [XANTHOXYLETIN] |
| Not Active | COc1c2c(cc3oc(=O)ccc13)OC(C)(C)CC2 |
| Not Active | COc1c2c(cc3oc(=O)ccc13)OC(C)(C)C1OC21 (stereo not given) |
| Not Active | COc1c2c(c(C(C)(C)C3CO3)c3oc(=O)c(C(C)(C)C4CO4)cc13)OC(C)(C)C1OC21 (stereo not given) |
| Not Active | C=CC(C)(C)c1cc2c(OC)c3c(c(C(C)(C)C=C)c2oc1=O)OC(C)(C)C=C3 |
| Not Active | COc1c2c(c(C(C)(C)C3CO3)c3oc(=O)ccc13)OC(C)(C)C1OC21 (stereo not given) |
| Not Active | COc1c2c(c(C(C)(C)C3CO3)c3oc(=O)ccc13)OC(C)(C)CC2=O (stereo not given) |

| Compound | EC50 |
| --- | --- |
| C=CC(C)(C)c1cc2c(O)c3c(c(C(C)(C)C=C)c2oc1=O)OC(C)(C)C=C3 [CLAUSARIN] | Not Active |

Test system: MCF7
Assay: Cytotoxicity against human MCF7 cells after 3 days by sulforhodamine B assay
Type: functional, cell-based
Details: MCF7, 72 h

| Compound | EC50 |
| --- | --- |
| CCC(C)(C)c1cc2c(O)c3c(c(C(C)(C)CC)c2oc1=O)OC(C)(C)CC3 | 17.7 µg/mL (≈ 45.9 µM) |
| C=CC(C)(C)c1c2c(c(O)c3ccc(=O)oc13)C=CC(C)(C)O2 [NORDENTATIN] | 17.3 µg/mL (≈ 55.4 µM) |
| CCC(C)(C)c1c2c(c(O)c3ccc(=O)oc13)CCC(C)(C)O2 | 16.3 µg/mL (≈ 51.6 µM) |
| C=CC(C)(C)c1cc2c(O)c3c(c(C(C)(C)C=C)c2oc1=O)OC(C)(C)C=C3 [CLAUSARIN] | 7.96 µg/mL (≈ 20.9 µM) |
| CC1(C)CC(=O)c2c(c(C(C)(C)C3CO3)c3oc(=O)ccc3c2O)O1 (stereo not given) | > 20 µg/mL |
| C=CC(C)(C)c1cc2c(OC)c3c(c(C(C)(C)C=C)c2oc1=O)OC(C)(C)C1OC31 (stereo not given) | 11.4 µg/mL (≈ 27.8 µM) |
| CCC(C)(C)c1c2c(c(OC)c3ccc(=O)oc13)C(=O)CC(C)(C)O2 | > 20 µg/mL |
| C=CC(C)(C)c1c2c(c(OC)c3ccc(=O)oc13)C=CC(C)(C)O2 [DENTATIN] | > 20 µg/mL |
| CCC(C)(C)c1c2c(c(OC)c3ccc(=O)oc13)CCC(C)(C)O2 | > 20 µg/mL |
| CCC(C)(C)c1c2c(c(O)c3ccc(=O)oc13)C(=O)CC(C)(C)O2 | > 20 µg/mL |

Test system: not listed separately
Assay: Cytotoxicity against human KBVIN cells after 3 days by sulforhodamine B assay
Type: functional, cell-based
Details: 72 h

| Compound | EC50 |
| --- | --- |
| CCC(C)(C)c1cc2c(O)c3c(c(C(C)(C)CC)c2oc1=O)OC(C)(C)CC3 | 7.73 µg/mL (≈ 20 µM) |
| C=CC(C)(C)c1c2c(c(O)c3ccc(=O)oc13)C=CC(C)(C)O2 [NORDENTATIN] | 9.96 µg/mL (≈ 31.9 µM) |
| CCC(C)(C)c1c2c(c(O)c3ccc(=O)oc13)CCC(C)(C)O2 | 9.11 µg/mL (≈ 28.8 µM) |
| C=CC(C)(C)c1cc2c(O)c3c(c(C(C)(C)C=C)c2oc1=O)OC(C)(C)C=C3 [CLAUSARIN] | 1.59 µg/mL (≈ 4.18 µM) |
| CC1(C)CC(=O)c2c(c(C(C)(C)C3CO3)c3oc(=O)ccc3c2O)O1 (stereo not given) | 2.71 µg/mL (≈ 7.87 µM) |
| C=CC(C)(C)c1cc2c(OC)c3c(c(C(C)(C)C=C)c2oc1=O)OC(C)(C)C1OC31 (stereo not given) | 6.12 µg/mL (≈ 14.9 µM) |
| CCC(C)(C)c1c2c(c(OC)c3ccc(=O)oc13)C(=O)CC(C)(C)O2 | 13 µg/mL (≈ 37.9 µM) |
| C=CC(C)(C)c1c2c(c(OC)c3ccc(=O)oc13)C=CC(C)(C)O2 [DENTATIN] | 14.7 µg/mL (≈ 45.1 µM) |
| CCC(C)(C)c1c2c(c(OC)c3ccc(=O)oc13)CCC(C)(C)O2 | 10.2 µg/mL (≈ 30.7 µM) |
| CCC(C)(C)c1c2c(c(O)c3ccc(=O)oc13)C(=O)CC(C)(C)O2 | 2.87 µg/mL (≈ 8.69 µM) |

Test system: Hepatitis B virus
Assay: Antiviral activity against Hepatitis B virus infected in human […] cells assessed as suppression of viral surface antigen production after 48 hrs by enzyme immunoassay
Type: functional, organism-based
Details: not given

| EC50 | Compound |
| --- | --- |
| 6.38 µM | C=CC(C)(C)c1c2c(c(O)c3ccc(=O)oc13)C=CC(C)(C)O2 [NORDENTATIN] |
| 1.34 µM | CCC(C)(C)c1c2c(c(O)c3ccc(=O)oc13)CCC(C)(C)O2 |
| 5.5 µM | C=CC(C)(C)c1c2c(c(OC)c3ccc(=O)oc13)C1OC1C(C)(C)O2 (stereo not given) |
| 6.6 µM | CCC(C)(C)c1cc2c(OC)c3c(c(C(C)(C)CC)c2oc1=O)OC(C)(C)CC3 |
| 4.56 µM | C=CC(C)(C)c1cc2c(OC)c3c(c(C(C)(C)C=C)c2oc1=O)OC(C)(C)C1OC31 (stereo not given) |
| 5.35 µM | CCC(C)(C)c1c2c(c(OC)c3ccc(=O)oc13)C(=O)CC(C)(C)O2 |
| 1.64 µM | C=CC(C)(C)c1c2c(c(OC)c3ccc(=O)oc13)C=CC(C)(C)O2 [DENTATIN] |
| 1.63 µM | CCC(C)(C)c1c2c(c(OC)c3ccc(=O)oc13)CCC(C)(C)O2 |
| 1.14 µM | CCC(C)(C)c1c2c(c(O)c3ccc(=O)oc13)C(=O)CC(C)(C)O2 |
| 11.2 µM | C=CC(C)(C)c1c2c(c(OC)c3ccc(=O)oc13)C(=O)CC(C)(C)O2 |
